The values below come from ChEMBL document CHEMBL1151098, “Design of pyrrolo-1,4-benzoxazine derivatives as inhibitors of 5-lipoxygenase and PAF antagonists with anthihistaminic properties” (Bioorg Med Chem Lett, 1994).

For test [1], the species on record is Oryctolagus cuniculus. The test can be described thus: Inhibitory activity of PAF-induced aggregation was determined on rabbit platelets. The format is functional.
Test [2] deals with T1, Polyunsaturated fatty acid 5-lipoxygenase (Rattus norvegicus, UniProt P12527).
T1 sequence (P12527 whole entry): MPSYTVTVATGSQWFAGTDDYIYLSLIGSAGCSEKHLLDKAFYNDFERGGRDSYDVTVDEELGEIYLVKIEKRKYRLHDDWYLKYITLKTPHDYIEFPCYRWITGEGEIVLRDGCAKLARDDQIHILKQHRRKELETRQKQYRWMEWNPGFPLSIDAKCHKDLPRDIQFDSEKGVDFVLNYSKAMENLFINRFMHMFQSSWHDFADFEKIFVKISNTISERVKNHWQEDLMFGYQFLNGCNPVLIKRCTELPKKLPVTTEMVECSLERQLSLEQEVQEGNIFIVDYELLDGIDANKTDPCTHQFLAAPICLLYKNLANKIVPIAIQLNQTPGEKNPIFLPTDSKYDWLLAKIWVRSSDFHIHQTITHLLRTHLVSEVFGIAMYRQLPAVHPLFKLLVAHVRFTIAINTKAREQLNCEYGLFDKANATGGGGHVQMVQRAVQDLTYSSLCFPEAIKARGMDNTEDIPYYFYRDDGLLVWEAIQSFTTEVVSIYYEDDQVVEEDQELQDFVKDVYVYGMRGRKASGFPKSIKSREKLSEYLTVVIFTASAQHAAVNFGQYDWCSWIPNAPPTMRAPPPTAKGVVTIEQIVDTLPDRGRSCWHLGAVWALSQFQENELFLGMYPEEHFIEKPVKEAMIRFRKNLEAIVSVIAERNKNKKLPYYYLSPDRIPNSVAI
Nature of the test: Inhibitory activity against 5-lipoxygenase in rat neutrophils as inhibition of A 23,187-induced LTB4 production.

Test [3] is described as follows: In vivo inhibitory activity of histamine induced cutaneous reaction was determined at a conc. of 2.1E-5 mol/ Kg. The format is functional.
Test [4] in a line: In vivo inhibitory activity of histamine induced cutaneous reaction was determined at a conc. of 2.1E-5 mol/ Kg; Not active. The format is functional, organism-based.
For test [5], the species on record is Oryctolagus cuniculus. The test can be described thus: Inhibitory activity of PAF-induced aggregation was determined on rabbit platelets; Not active at 10e-5 M. The format is functional.

Activity calls are given as the source filed them. No cut-off for these calls is given here.

One may read the IC50 as the concentration needed to halve the response being measured. Low values mean inhibition by little substance, high ones a need for much substance. By Inhibition is commonly meant how much of the control response was suppressed. With `Cc1cccnc1N1CCN(CCC2Cn3c(-c4ccc(O)cc4)c(C)c4cccc(c43)O2)CC1` (stereo not drawn), the IC50 is 7.2 µM in the test filed under Oryctolagus cuniculus [1] and 2.3 µM in test [2]. This molecule registered an Inhibition in test [3] of 57%.

Consider `Cc1ccnc(N2CCN(CCC3Cn4c(-c5cc(C)c(O)c(C)c5)c(C)c5cccc(c54)O3)CC2)c1` (stereo not drawn), for which the IC50 in the test filed under Oryctolagus cuniculus [1] came out at 1.6 µM; in test [2] it was 1.5 µM. This molecule returned an Inhibition in test [3] of 15%.

As for `COc1cc2c3c(c1)c(C)c(-c1cc(C)c(O)c(C)c1)n3CC(CCN1CCN(c3cc(C)ccn3)CC1)O2` (stereo not drawn), the results for the IC50 (in the test listed under Oryctolagus cuniculus [1]; in test [2]) were 2.9 µM and 7.6 µM, respectively. The molecule further came in with an Inhibition in test [3] of 32%.

Consider `Cc1c(-c2ccc(O)cc2)n2c3c(cccc13)OC(CCN1CCN(c3ccccn3)CC1)C2` (stereo not drawn), for which the values for the IC50 (in the test filed under Oryctolagus cuniculus [1]; in test [2]) were 8.1 µM and 2.2 µM, respectively. This molecule also returned an Inhibition in test [3] of 47%.

`Cc1ccnc(N2CCN(CCC3Cn4c(-c5cc(C)c(O)c(C)c5)c(C)c5cc(O)cc(c54)O3)CC2)c1` (stereo not drawn): the IC50 worked out at 0.45 µM in the test filed under Oryctolagus cuniculus [1] and 0.29 µM in test [2]. In addition, the Inhibition in test [3] is given as 37%.

Regarding `Cc1ccnc(N2CCN(CCC3Cn4c(-c5ccc(O)c(O)c5)c(C)c5cccc(c54)O3)CC2)c1` (stereo not drawn), the IC50 amounted to 4.7 µM in the test filed under Oryctolagus cuniculus [1] and 1.9 µM in test [2]. The inhibition entry in test [4] is “inactive”.

As to `Cc1ccc(N2CCN(CCC3Cn4c(-c5ccc(O)cc5)c(C)c5cccc(c54)O3)CC2)nc1` (stereo not drawn), the IC50 was 9.9 µM in the test listed under Oryctolagus cuniculus [1] and 3.1 µM in test [2]. Moreover, in test [3], the Inhibition is reported as 58%.

Take `COc1ccc2[nH]c(-c3cc(C)c(O)c(C)c3)c(C)c2c1`: the IC50 entry in the test listed under Oryctolagus cuniculus [5] was “Not Active”; in test [2], 0.11 µM. In addition, the inhibition result in test [4] was “inactive”.

With `COc1cc(-c2c(C)c3cccc4c3n2CC(CCN2CCN(c3cc(C)ccn3)CC2)O4)ccc1O` (stereo not drawn), the IC50 in the test filed under Oryctolagus cuniculus [1] was found to be 5 µM; in test [2] it was 3.2 µM. Moreover, the Inhibition in test [3] was 2%.

`Cc1ccnc(N2CCN(CCC3Cn4c(-c5ccc(O)cc5)c(C)c5cccc(c54)O3)CC2)c1` (stereo not drawn): the IC50 in the test listed under Oryctolagus cuniculus [1] worked out at 2.7 µM; in test [2] it was 3 µM. This molecule displayed an Inhibition in test [3] of 10%.

`Cc1cccc(N2CCN(CCC3Cn4c(-c5ccc(O)cc5)c(C)c5cccc(c54)O3)CC2)n1` (stereo not drawn): the IC50 in the test filed under Oryctolagus cuniculus [1] stood at 10.2 µM; in test [2] it was 3.3 µM. The Inhibition in test [3] is 39%.
